Test results: paper PMC12291762 (Antioxidants, 2025)
pIC50: −log10 of the molar value.

Experiments:
[1] = target: T1, COX-1 (Ovis aries, UniProt P05979); test: Fluorometric COX-1 inhibitor screening kit; assay type: biochemical; parameters: purchased Abcam ab204698; conditions: mean ± standard error, three independent measurements
T1 sequence (P05979 25-600): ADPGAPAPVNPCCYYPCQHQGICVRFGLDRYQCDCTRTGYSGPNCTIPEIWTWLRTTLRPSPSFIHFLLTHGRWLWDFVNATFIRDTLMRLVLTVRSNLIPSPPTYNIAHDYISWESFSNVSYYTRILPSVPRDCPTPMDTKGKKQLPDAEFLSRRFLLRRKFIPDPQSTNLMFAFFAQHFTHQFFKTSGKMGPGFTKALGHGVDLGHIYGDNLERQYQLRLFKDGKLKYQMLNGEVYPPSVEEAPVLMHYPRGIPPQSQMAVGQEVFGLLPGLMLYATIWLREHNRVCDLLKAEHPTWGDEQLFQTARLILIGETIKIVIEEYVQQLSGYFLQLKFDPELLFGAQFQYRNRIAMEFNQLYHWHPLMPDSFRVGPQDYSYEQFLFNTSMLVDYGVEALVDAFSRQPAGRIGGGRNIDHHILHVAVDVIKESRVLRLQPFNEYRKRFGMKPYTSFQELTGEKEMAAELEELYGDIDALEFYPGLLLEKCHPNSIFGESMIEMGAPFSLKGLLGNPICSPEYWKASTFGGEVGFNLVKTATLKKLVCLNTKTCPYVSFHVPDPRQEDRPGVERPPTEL
Experimental: The inhibitory activity of the tested compounds against COX-1 and COX-2 isoforms was assessed using fluorometric cyclooxygenase inhibitor screening kits (Catalog Numbers ab204698 and ab283401, respectively; Abcam, Cambridge, UK). These assays detect the formation of prostaglandin G2, a product of COX enzymatic activity, via fluorometric measurement.
Stock solutions of the test compounds were prepared at a concentration of 5 mM in DMSO and subsequently diluted with the same solvent to obtain the test solutions. For the assay preparation, 2 μL of each test solution was diluted with 8 μL of COX assay buffer. The solvent control (SC) consisted of 2 μL of DMSO and 8 μL of assay buffer, while the enzyme control (EC) contained 10 μL of assay buffer alone. Sample wells (S) received 10 μL of the diluted test solutions. All other steps were in accordance with the manufacturer’s protocol and the previously published article. […] The percentage of inhibition was calculated as follows:(3) % Relative Inhibition=Slope of EC−Slope of S/Slope of EC×100
Fluorescence measurements were conducted on a BioTek Synergy LX multi-mode reader (Winooski, VT, USA).

[2] = tested on: carrageenan-induced rat paw edema; test: Carrageenan-induced rat paw edema model of acute inflammation; assay type: in vivo, Wistar albino rats; conditions: for % of inhibition of paw edema, 1 h / Rat paw thickness, 1 h / % of inhibition of paw edema, 2 h / Rat paw thickness, 2 h / % of inhibition of paw edema, 3 h / Rat paw thickness, 3 h / % of inhibition of paw edema, 4 h / Rat paw thickness, 4 h / Anti-inflammatory effect on edema diameter compared to the control group (significance): 0.0315 mmol/kg i.p.; for % of inhibition of paw edema, 1 h / % of inhibition of paw edema, 2 h / % of inhibition of paw edema, 3 h / % of inhibition of paw edema, 4 h: vs solvent group; for Rat paw thickness, 1 h: 1 h post-carrageenan; for Rat paw thickness, 1 h / Rat paw thickness, 2 h / Rat paw thickness, 3 h / Rat paw thickness, 4 h / Rat paw thickness, 0 h: mean ± SD; for Rat paw thickness, 2 h: 2 h post-carrageenan; for Rat paw thickness, 3 h: 3 h post-carrageenan; for Rat paw thickness, 4 h: 4 h post-carrageenan; for Anti-inflammatory effect on edema diameter compared to the control group (significance): from 2nd hour to end of observation; for Rat paw thickness, 0 h: immediately before inflammation induction
Experimental: Inflammation was induced in all rats by an intraplantar injection of 100 μL of freshly prepared 1% carrageenan solution in distilled water into the left hind paw. A total of 56 male Wistar albino rats were randomly divided into five experimental groups (n = 40 rats, 8 rats per subgroup) and two control groups (n = 16 rats, 8 rats per subgroup).
The experimental groups consisted of rats that received synthesized compounds via intraperitoneal injection immediately following carrageenan administration. The solutions of the investigated molecules were prepared by dissolving the compound in distilled water with the addition of a few drops of Tween 80 [18], whereby each rat received 500 μL of the prepared solution. […] The negative control group included rats that received an intraperitoneal injection of the solvent solution (distilled water with a few drops of Tween 80) at the same time point.
To quantify the anti-edematous effect, the thickness of the left paw tissue of each rat was measured at specific time intervals: immediately before inflammation induction (moment 0) and at 1, 2, 3, and 4 h post-induction (moments 1, 2, 3, and 4, respectively). Tissue thickness was assessed in the middle of the rat paw using a digital vernier caliper (Aerospace, Beijing, China).

[3] = tested on: local oxidative stress parameters; test: Local redox state (edema-affected paw tissue homogenate) 24 h after carrageenan; assay type: in vivo, Wistar albino rats; conditions: inflamed paw tissue; for Local nitrites level (reduction, p < 0.05): comparator not given
Experimental: Following 24 h of carrageenan-induced paw edema inflammation model and intraperitoneal anesthesia induced by ketamine/xylazine (100/10 mg/kg of BW), the animals were sacrificed, while whole-blood samples and edema-affected paw tissues were isolated. After centrifugation of whole blood, plasma and erythrocyte lysate samples were separated for further examination of the applied compounds’ effects on the systemic redox balance state. Pro-oxidative markers including superoxide anion radical (O2∙^−), hydrogen peroxide (H2O2) nitrites (NO2^−), and index of lipid peroxidation measured as thiobarbituric acid (TBA) reactive substances (TBARS) were determined from plasma samples, while the antioxidant capacity, including superoxide dismutase (SOD) and catalase (CAT) activity, as well as the reduced glutathione (GSH) level were examined in erythrocyte lysate samples [46]. […] Edema-affected paw tissue samples were weighed (100 mg) and homogenized (OmniPrep™ multi-sample homogenizer, Omni International, Kennesaw, GA, USA) in 900 µL phosphate buffer on ice (pH = 7.4), and centrifuged at 12,000 rpm for 20 min. These supernatant samples were used for the determination of the aforementioned pro-oxidative and antioxidative parameters levels. All oxidative stress analyses were performed spectrophotometrically using a Shimadzu UV 1800 spectrophotometer (Kyoto, Japan).
Determination of the O2∙^− level was conducted by adding 950 µL of a Nitro Blue Tetrazolium (NBT) mixture with TRIS buffer in 50 µL of sample, measured at the 550 nm wavelength. The level of H2O2 was determined during the oxidation of phenol red by H2O2, which was catalyzed with horseradish peroxidase and measured at the 610 nm wavelength. Indirect measurement of nitrites was performed by the precipitation of samples with 30% sulfo-salicylic acid, followed by vortexing and centrifugation at 3000 rpm for 15 min. The equal volumes of isolated supernatant and Griess’ reagent (containing 1% sulfanilamide in 5% phosphoric acid/0.1% naphthalene ethylenediamine-dihydrochloride) were incubated for 10 min and measured at the 550 nm wavelength. The TBARS concentration was determined by adding 400 µL of sample to 200 µL of TBA in 0.05 M NaOH, followed by 15 min incubation at 100 °C. Measurement was performed at the 530 nm wavelength.
The epinephrine method was used for SOD determination. By adding 100 µL of sample, the same volume of epinephrine, and 1000 µL of carbonate buffer, the measurement was performed at the 470 nm wavelength. The determination of CAT activity was based on the preparation of a mixture containing 100 µL of sample, 50 µL of catalase buffer, and 1000 µL of 10 mM H2O2, which was measured at the 230 nm wavelength.

Row | Structure (SMILES) | pIC50 [1] | % of inhibition of paw edema, 1 h [2] [%] | Rat paw thickness, 1 h [2] [mm] | % of inhibition of paw edema, 2 h [2] [%] | Rat paw thickness, 2 h [2] [mm] | % of inhibition of paw edema, 3 h [2] [%] | Rat paw thickness, 3 h [2] [mm] | % of inhibition of paw edema, 4 h [2] [%] | Rat paw thickness, 4 h [2] [mm] | Anti-inflammatory effect on edema diameter compared to the control group (significance) [2] | Rat paw thickness, 0 h [2] [mm] | Local SOD activity compared to Dex rats [3] | Local SOD activity compared to untreated (negative control) rats [3] | Local TBARS level compared to Dex group [3] | Local TBARS level compared to Sol rats [3] | Local nitrites level (reduction, p < 0.05) [3]
1 | C[C@H](NC(=O)[C@@H](C)c1cccc(C(=O)c2ccccc2)c1)C(=O)O [Compound 2, ((S)-2-(3-benzoylphenyl)propanoyl)-L-alanine] | < 4.00 | 16.090 | 6.52 ± 0.28 | 26.619 | 6.36 ± 0.25 | 33.684 | 5.92 ± 0.19 | 62.941 | 5.08 ± 0.54 | significantly reduced the edema diameter | 4.66 ± 0.13 | increase the SOD activity | increase the SOD activity | no statistical differences | reduce the TBARS level | markedly reduced
2 | C[C@H](C(=O)NCCCC(=O)O)c1cccc(C(=O)c2ccccc2)c1 [Compound 5, (S)-4-(2-(3-benzoylphenyl)propanamido)butanoic acid] | < 4.00 | 7.068 | 5.52 ± 0.25 | 17.122 | 5.38 ± 0.48 | 18.947 | 5.00 ± 0.29 | 27.647 | 4.28 ± 0.37 |  | 3.46 ± 0.29 |  |  |  |  | markedly reduced
3 | C[C@H](C(=O)NCC(=O)O)c1cccc(C(=O)c2ccccc2)c1 [Compound 1, (S)-(2-(3-benzoylphenyl)propanoyl)glycine] | < 4.00 | 5.263 | 5.68 ± 0.25 | 13.669 | 5.58 ± 0.34 | 16.842 | 5.16 ± 0.34 | 18.824 | 4.50 ± 0.29 | did not achieve an anti-inflammatory effect at any measurement times | 3.58 ± 0.13 |  |  |  |  | 

Further lines, with some results ahead:

Row | pIC50 [1] | Structure (SMILES) | % of inhibition of paw edema, 1 h [2] [%] | Rat paw thickness, 1 h [2] [mm] | % of inhibition of paw edema, 2 h [2] [%] | Rat paw thickness, 2 h [2] [mm] | % of inhibition of paw edema, 3 h [2] [%] | Rat paw thickness, 3 h [2] [mm] | % of inhibition of paw edema, 4 h [2] [%] | Rat paw thickness, 4 h [2] [mm] | Anti-inflammatory effect on edema diameter compared to the control group (significance) [2] | Rat paw thickness, 0 h [2] [mm] | Local SOD activity compared to Dex rats [3] | Local SOD activity compared to untreated (negative control) rats [3] | Local TBARS level compared to Dex group [3] | Local TBARS level compared to Sol rats [3] | Local nitrites level (reduction, p < 0.05) [3]
4 | < 4.00 | C[C@H](C(=O)N[C@@H](Cc1c[nH]c2ccccc12)C(=O)O)c1cccc(C(=O)c2ccccc2)c1 [Compound 4, ((S)-2-(3-benzoylphenyl)propanoyl)-L-tryptophan] | 15.038 | 5.90 ± 0.37 | 24.460 | 5.77 ± 0.36 | 28.070 | 5.38 ± 0.34 | 58.824 | 4.48 ± 0.33 | significantly reduced the edema diameter | 4.02 ± 0.12 |  |  |  |  | 
5 | < 4.00 | C[C@H](C(=O)N[C@@H](Cc1ccccc1)C(=O)O)c1cccc(C(=O)c2ccccc2)c1 [Compound 3, ((S)-2-(3-benzoylphenyl)propanoyl)-L-phenylalanine] | 10.526 | 6.25 ± 0.25 | 20.863 | 6.10 ± 0.18 | 22.807 | 5.73 ± 0.23 |  | 4.93 ± 0.37 |  | 4.27 ± 0.21 |  |  |  |  | 
